Read-outs that look alike come from different tables or passages of the source.
Key:
[1] = target: T1, Cyclin Dependent Kinase 1/Cyclin A2 (CDK1-cycA2) (Homo sapiens, UniProt P06493); experiment: CDK1-cycA2 TR-FRET (Lance) enzyme assay; assay type: biochemical; conditions: for Ki: Table O, enzymatic assay; for FS CDK1/CDK2: fold selectivity, enzymatic Ki ratio
T1 construct: purchased ProQinase 0134-0054-1
Procedure, shortened: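 Human CDK1/cyclin A2 pre-incubated 30 min with compound dose responses in 50 mM HEPES pH 7.5, 10 mM MgCl2, 2 mM TCEP, 0.05% BGG, 0.01% Brij 35. Reaction quenched with EDTA (15 mM final); TR-FRET readout using Eu-anti-phospho-4E-BP1, acceptor/donor ratio. Inhibition constants from Morrison equation.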

[2] = system: SKOV-3 (ATCC HTB-77); experiment: SKOV-3 EdU incorporation cell proliferation assay (CDK4/6-dependent); assay type: cell-based; conditions: for IC50: Homo sapiens, cellular assay, read-out: CDK4/6 SKOV-3 IC50; for selectivity for CDK2 over CDK4 compared with Comparator E: SKOV-3/OVISE fold-selectivity cellular assay data; for FS SKOV-3/OVISE: fold selectivity, cellular IC50 ratio
Procedure, shortened: (§1)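 Cells in RPMI/10% FBS dosed with compound (0.5% DMSO final) for 16 h at 37 °C, 5% CO2, then EdU 0.5 μM final for 8 h before fixation and imaging. IC50 from 4-parameter logistic fit of EdU-positive cell fraction versus dose.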

[3] = target: T2, Cyclin Dependent Kinase 2/Cyclin E1 (CDK2-cycE1) (Homo sapiens, UniProt P24941); experiment: CDK2-cycE1 TR-FRET (LANCE) enzyme assay; assay type: biochemical; conditions: for FS CDK1/CDK2 / FS CDK4/CDK2: fold selectivity; for FS CDK1/CDK2: enzymatic CDK1 Ki over CDK2 Ki; for FS CDK4/CDK2: enzymatic CDK4 Ki over CDK2 Ki; for CDK2 Ki fold change in potency versus Comparator D / CDK2 Ki fold change in potency versus Comparator E: in brackets after CDK2 Ki
T2 construct: purchased ProQinase 0050-0055-1
Procedure, shortened: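 Compound dose responses pre-incubated 30 min with CDK2-cycE1 in 50 mM HEPES pH 7.5, 10 mM MgCl2, 2 mM TCEP, 0.05% BGG, 0.01% Brij 35. Reaction quenched with EDTA (15 mM final), phospho-MBP detected by Eu-anti-phospho-MBP TR-FRET (acceptor/donor ratio). Inhibition constants from Morrison equation.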

[4] = system: OVISE (JCRB1043, CCNE1-amplified); experiment: OVISE EdU incorporation cell proliferation assay (CDK2-dependent); assay type: cell-based; conditions: for CDK2 cell potency compared with Comparator E: CDK2 OVISE cellular assay data; for IC50 / FS SKOV-3/OVISE / FS p-H3/OVISE: Table O; for IC50: cellular assay, read-out: CDK2 OVISE IC50; for FS SKOV-3/OVISE / FS p-H3/OVISE: fold selectivity; for FS SKOV-3/OVISE: cellular SKOV-3 IC50 over OVISE IC50; for FS p-H3/OVISE: cellular p-H3 IC50 over OVISE IC50; for CDK2 OVISE IC50 fold change in potency versus Comparator D: Table R; for CDK2 OVISE IC50 fold change in potency versus Comparator D / CDK2 OVISE IC50 fold change in potency versus Comparator E: in brackets after OVISE IC50; for CDK2 OVISE IC50 fold change in potency versus Comparator E: Table S
Procedure, shortened: as §1

[5] = target: T3, Cyclin Dependent Kinase 4/Cyclin D3 (CDK4-cycD3) (Homo sapiens, UniProt P11802); experiment: CDK4-cycD3 TR-FRET (LANCE) enzyme assay; assay type: biochemical; conditions: for Ki: Table O, enzymatic assay; for FS CDK4/CDK2: fold selectivity, enzymatic Ki ratio
T3 construct: purchased Carna Biosciences 04-105
T3 sequence (P11802 whole entry): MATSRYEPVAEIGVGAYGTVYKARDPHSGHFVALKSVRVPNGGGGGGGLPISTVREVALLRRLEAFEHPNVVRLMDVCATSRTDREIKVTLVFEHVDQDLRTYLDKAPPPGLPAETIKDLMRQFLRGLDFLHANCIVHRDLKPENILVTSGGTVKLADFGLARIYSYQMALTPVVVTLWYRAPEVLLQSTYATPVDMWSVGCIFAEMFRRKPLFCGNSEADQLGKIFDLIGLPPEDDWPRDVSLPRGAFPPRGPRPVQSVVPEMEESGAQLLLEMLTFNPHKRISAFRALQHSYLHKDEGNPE
T3 sequence (P30281 whole entry partner): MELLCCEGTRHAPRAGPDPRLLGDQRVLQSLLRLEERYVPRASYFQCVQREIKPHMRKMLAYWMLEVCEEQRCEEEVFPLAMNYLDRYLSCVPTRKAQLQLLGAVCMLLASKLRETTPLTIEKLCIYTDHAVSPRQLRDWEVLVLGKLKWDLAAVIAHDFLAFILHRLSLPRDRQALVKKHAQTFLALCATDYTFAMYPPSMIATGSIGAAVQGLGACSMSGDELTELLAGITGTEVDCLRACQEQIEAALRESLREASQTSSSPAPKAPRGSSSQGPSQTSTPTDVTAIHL
Procedure, shortened: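 Compound dose responses pre-incubated 30 min with enzyme mix in 50 mM HEPES pH 7.5, 10 mM MgCl2, 2 mM TCEP, 0.05% BGG, 0.01% Brij 35. Reaction quenched with EDTA (15 mM final); Eu-anti-phospho-4E-BP1 TR-FRET detection, acceptor/donor ratio. Ki derived by Morrison equation.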

[6] = system: HCT116 cells; experiment: p-H3 HCT-116 mitotic release cell proliferation assay (cellular CDK1); assay type: cell-based; conditions: Homo sapiens, HCT-116; Table O, cellular assay; read-out: CDK1 p-H3 IC50
Procedure, shortened: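 HCT116 cells arrested 16 h with 500 nM nocodazole, then exposed to compound for 4 h at 37 °C (0.1% DMSO). Lysates read by HTRF/FRET with donor and acceptor phospho-Histone H3 (Ser10) antibodies, ≥2 h at room temperature; CDK1 inhibition seen as loss of p-H3 on mitotic release.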

[7] = Table O, enzymatic assay, read-out: CDK2 Ki
[8] = Table R, enzymatic assay, read-out: CDK2 Ki
[9] = Table S, enzymatic assay, read-out: CDK2 Ki

T1 sequence (P06493 whole entry): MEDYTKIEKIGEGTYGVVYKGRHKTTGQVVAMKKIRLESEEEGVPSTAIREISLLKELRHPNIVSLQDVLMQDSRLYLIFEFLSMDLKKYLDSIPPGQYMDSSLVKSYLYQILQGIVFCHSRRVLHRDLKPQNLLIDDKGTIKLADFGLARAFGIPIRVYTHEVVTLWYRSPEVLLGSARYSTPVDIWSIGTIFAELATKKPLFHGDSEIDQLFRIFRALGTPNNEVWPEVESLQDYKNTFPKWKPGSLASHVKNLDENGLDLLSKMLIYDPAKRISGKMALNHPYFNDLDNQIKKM
T1 sequence (P20248 whole entry partner): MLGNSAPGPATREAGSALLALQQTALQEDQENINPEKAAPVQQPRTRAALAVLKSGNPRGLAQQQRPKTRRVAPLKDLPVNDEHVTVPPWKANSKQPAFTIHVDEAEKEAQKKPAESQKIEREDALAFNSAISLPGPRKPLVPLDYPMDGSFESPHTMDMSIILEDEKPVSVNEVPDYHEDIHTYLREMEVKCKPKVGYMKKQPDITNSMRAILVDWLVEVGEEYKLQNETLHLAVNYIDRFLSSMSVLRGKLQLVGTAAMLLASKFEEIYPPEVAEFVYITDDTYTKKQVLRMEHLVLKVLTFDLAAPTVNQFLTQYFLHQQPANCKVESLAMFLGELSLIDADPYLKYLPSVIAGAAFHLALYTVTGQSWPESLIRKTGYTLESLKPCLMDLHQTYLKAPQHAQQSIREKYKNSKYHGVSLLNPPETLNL

Row | Structure (SMILES) | Ki [1] [nM] | FS CDK1/CDK2 increased over Comparator D, (+) sign ([1]; Table R) | FS CDK1/CDK2 ([1]; Table R) | FS CDK1/CDK2 ([1]; Table S) | IC50 ([2]; SK-OV-3, Table O) [nM] | FS SKOV-3/OVISE increased over Comparator D, (+) sign ([2]; Table R) | FS SKOV-3/OVISE ([2]; Table R) | FS SKOV-3/OVISE ([2]; Table S) | Ki [3, 7] [nM] | FS CDK1/CDK2 ([3]; Table O) | FS CDK4/CDK2 ([3]; Table O) | Ki [3, 8] [nM] | CDK2 Ki fold change in potency versus Comparator D ([3]; Table R) [fold] | Ki [3, 9] [nM] | CDK2 Ki fold change in potency versus Comparator E ([3]; Table S) [fold] | IC50 [4] [nM] | FS SKOV-3/OVISE [4] | FS p-H3/OVISE [4] | CDK2 OVISE IC50 fold change in potency versus Comparator D [4] [fold] | CDK2 OVISE IC50 fold change in potency versus Comparator E [4] [fold] | also measured
1 | Cc1cc(Nc2cc([C@H]3CC[C@@H](OC(=O)NC(C)(C)C)C3)[nH]n2)nn(C)c1=O [Example 4D, (1R,3S)-3-(3-((1,5-dimethyl-6-oxo-1,6-dihydropyridazin-3-yl)amino)-1H-pyrazol-5-yl)cyclopentyl tert-butylcarbamate] | 3.7 | (+) | > 59 | >59 | 1500 | (+) | 58 | 58 | < 0.1 | >59 | >620 | < 0.1 | 27 | < 0.1 | 5.2 | 26 | 58 | 0.35 | 146 | 6.5 | selectivity for CDK2 over CDK4 compared with Comparator E [2]: increase in selectivity for CDK2 over CDK4; FS SKOV-3/OVISE increased over Comparator E, (+) sign ([2]; Table S): (+); Ki ([3]; read-out: CDK2 activity / potency (enzymatic assay)): ≤ 1 nM; CDK2 cell potency compared with Comparator E [4]: more potent CDK2 cell inhibitors compared to Comparator E; Ki [5]: 39 nM; FS CDK4/CDK2 increased over Comparator D, (+) sign ([5]; Table R): (+); FS CDK4/CDK2 ([5]; Table R): > 620; FS CDK4/CDK2 increased over Comparator E, (+) sign ([5]; Table S): (+); FS CDK4/CDK2 ([5]; Table S): > 620; IC50 [6]: 9.2 nM
2 | CC(C)(C)NC(=O)O[C@@H]1CC[C@H](c2cc(Nc3ncccn3)n[nH]2)C1 [Example 4J, (1R,3S)-3-(3-(pyrimidin-2-ylamino)-1H-pyrazol-5-yl)cyclopentyl tert-butylcarbamate] | 170 | (+) | 68 | 68 | 1200 | (+) | 3.8 | 3.8 | 2.5 | 68 | 4.4 | 2.5 | 1.1 | 2.5 | 0.2 | 320 | 3.8 | 1.1 | 12 | 0.5 | FS CDK1/CDK2 increased over Comparator E, (+) sign ([1]; Table S): (+); IC50 ([2]; SK-OV-3, Table R): 1200 nM; IC50 ([2]; SK-OV-3, Table S): 1200 nM; Ki [5]: 11 nM; FS CDK4/CDK2 increased over Comparator D, (+) sign ([5]; Table R): (+); FS CDK4/CDK2 ([5]; Table R): 4.4; FS CDK4/CDK2 ([5]; Table S): 4.4; IC50 [6]: 360 nM
3 | CC(C)(C)NC(=O)O[C@@H]1CC[C@H](c2cc(Nc3ccncc3)n[nH]2)C1 [Example 4H, (1R,3S)-3-(3-(pyridin-4-ylamino)-1H-pyrazol-5-yl)cyclopentyl tert-butylcarbamate] | 180 | (+) | 90 | 90 | 950 | (+) | 25 | 25 | 2 | 90 | 55 | 2 | 1.4 | 2 | 0.3 | 38 | 25 | 1.4 | 100 | 4.4 | FS CDK1/CDK2 increased over Comparator E, (+) sign ([1]; Table S): (+); selectivity for CDK2 over CDK4 compared with Comparator E [2]: increase in selectivity for CDK2 over CDK4; FS SKOV-3/OVISE increased over Comparator E, (+) sign ([2]; Table S): (+); CDK2 cell potency compared with Comparator E [4]: more potent CDK2 cell inhibitors compared to Comparator E; Ki [5]: 110 nM; FS CDK4/CDK2 increased over Comparator D, (+) sign ([5]; Table R): (+); FS CDK4/CDK2 ([5]; Table R): 55; FS CDK4/CDK2 increased over Comparator E, (+) sign ([5]; Table S): (+); FS CDK4/CDK2 ([5]; Table S): 55; IC50 [6]: 54 nM
4 | Cn1cc(Nc2cc([C@H]3CC[C@@H](OC(=O)NC(C)(C)C)C3)[nH]n2)ccc1=O [Example 1, (1R,3S)-3-(3-((1-methyl-6-oxo-1,6-dihydropyridin-3-yl)amino)-1H-pyrazol-5-yl)cyclopentyl tert-butylcarbamate] | 270 | (+) | 36 | 36 | > 20000 | (+) | > 91 | > 91 | 7.6 | 36 | 92 | 7.6 | 0.4 | 7.6 | 0.1 | 220 | >91 | 0.45 | 17 | 0.8 | IC50 ([2]; SK-OV-3, Table R): > 20000 nM; IC50 ([2]; SK-OV-3, Table S): > 20000 nM; selectivity for CDK2 over CDK4 compared with Comparator E [2]: increase in selectivity for CDK2 over CDK4; FS SKOV-3/OVISE increased over Comparator E, (+) sign ([2]; Table S): (+); Ki [5]: 700 nM; FS CDK4/CDK2 increased over Comparator D, (+) sign ([5]; Table R): (+); FS CDK4/CDK2 ([5]; Table R): 92; FS CDK4/CDK2 increased over Comparator E, (+) sign ([5]; Table S): (+); FS CDK4/CDK2 ([5]; Table S): 92; IC50 [6]: 100 nM
5 | CNC(=O)c1ccnc(Nc2cc([C@H]3CC[C@@H](OC(=O)NC(C)(C)C)C3)[nH]n2)c1 [Example 4F, (1R,3S)-3-(3-((4-(methylcarbamoyl)pyridin-2-yl)amino)-1H-pyrazol-5-yl)cyclopentyl tert-butylcarbamate] | 52 | (+) | 21 | 21 | 1700 | (+) | 8.9 | 8.9 | 2.5 | 21 | 15 | 2.5 | 1.1 | 2.5 | 0.2 | 190 | 8.9 | 0.35 | 20 | 0.9 | IC50 ([2]; SK-OV-3, Table R): 1700 nM; IC50 ([2]; SK-OV-3, Table S): 1700 nM; Ki [5]: 37 nM; FS CDK4/CDK2 increased over Comparator D, (+) sign ([5]; Table R): (+); FS CDK4/CDK2 ([5]; Table R): 15; FS CDK4/CDK2 ([5]; Table S): 15; IC50 [6]: 66 nM

Source: patent US20240425478A1, “CYCLOPENTYLPYRAZOLE CDK2 INHIBITORS” (Genentech, Inc., priority 2021, published 2024)
